Assays:
Experiment in all cases: relative viability (nuclei count vs DMSO), 5 days (fraction); higher = more cells survive
Vismodegib + Olaparib = compound: CS(=O)(=O)c1ccc(C(=O)Nc2ccc(Cl)c(-c3ccccn3)c2)c(Cl)c1 [Vismodegib] + O=C(c1cc(Cc2n[nH]c(=O)c3ccccc23)ccc1F)N1CCN(C(=O)C2CC2)CC1 [Olaparib] (partner 8 µM)
Outline: (§1)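 Relative viability was taken as the ratio of nuclei in treated wells to nuclei in vehicle wells. Lung cancer cell lines in 1536-well plates received compounds by pin tool one day after seeding, either one drug alone or a fixed anchor-drug dose plus five library-drug doses (not always all listed) in √10 steps. Nuclei were counted on 4× images after 5 days of treatment, and values are medians of duplicate plates.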

Vismodegib + Pemetrexed = compound: CS(=O)(=O)c1ccc(C(=O)Nc2ccc(Cl)c(-c3ccccn3)c2)c(Cl)c1 [Vismodegib] + Nc1nc2[nH]cc(CCc3ccc(C(=O)N[C@@H](CCC(=O)O)C(=O)O)cc3)c2c(=O)[nH]1 [Pemetrexed] (partner 0.2 µM)
Outline: as §1

VE-821 + Olaparib = compound: CS(=O)(=O)c1ccc(-c2cnc(N)c(C(=O)Nc3ccccc3)n2)cc1 [VE-821] + O=C(c1cc(Cc2n[nH]c(=O)c3ccccc23)ccc1F)N1CCN(C(=O)C2CC2)CC1 [Olaparib] (partner 8 µM)
Outline: as §1

Vismodegib + Phenformin = compound: CS(=O)(=O)c1ccc(C(=O)Nc2ccc(Cl)c(-c3ccccn3)c2)c(Cl)c1 [Vismodegib] + N=C(N)NC(=N)NCCc1ccccc1 [Phenformin] (partner 250 µM)
Outline: as §1

| Cell Line | relative viability (Vismodegib + Olaparib; first compound 0.08 µM) | relative viability (Vismodegib + Olaparib; first compound 0.253 µM) | relative viability (Vismodegib + Olaparib; first compound 0.8 µM) | relative viability (Vismodegib + Olaparib; first compound 2.53 µM) | relative viability (Vismodegib + Olaparib; first compound 8 µM) | relative viability (Vismodegib + Pemetrexed; first compound 0.08 µM) | relative viability (Vismodegib + Pemetrexed; first compound 0.253 µM) | relative viability (Vismodegib + Pemetrexed; first compound 0.8 µM) | relative viability (Vismodegib + Pemetrexed; first compound 2.53 µM) | relative viability (Vismodegib + Pemetrexed; first compound 8 µM) | relative viability (VE-821 + Olaparib; first compound 0.08 µM) | relative viability (VE-821 + Olaparib; first compound 0.253 µM) | relative viability (VE-821 + Olaparib; first compound 0.8 µM) | relative viability (VE-821 + Olaparib; first compound 2.53 µM) | relative viability (VE-821 + Olaparib; first compound 8 µM) | relative viability (Vismodegib + Phenformin; first compound 0.08 µM) | relative viability (Vismodegib + Phenformin; first compound 0.253 µM) | relative viability (Vismodegib + Phenformin; first compound 0.8 µM) | relative viability (Vismodegib + Phenformin; first compound 2.53 µM) | relative viability (Vismodegib + Phenformin; first compound 8 µM) |
| --- | --- | --- | --- | --- | --- | --- | --- | --- | --- | --- | --- | --- | --- | --- | --- | --- | --- | --- | --- | --- |
| LCLC-97TM1 | 0.355 | 0.416 | 0.439 | 0.298 | 0.565 | 0.205 | 0.171 | 0.149 | 0.176 | 0.178 | 0.483 | 0.373 | 0.418 | 0.359 | 0.166 | 0.443 | 0.407 | 0.42 | 0.452 | 0.407 |
| LK-2 | 0.379 | 0.574 | 0.956 | 0.638 | 0.604 | 0.248 | 0.255 | 0.307 | 0.238 | 0.266 | 0.991 | 0.826 | 0.879 | 0.916 | 0.69 | 0.617 | 0.619 | 0.431 | 0.366 | 0.373 |
| BEN | 1.14 | 1.05 | 0.889 | 1.08 | 1.13 | 0.679 | 0.682 | 0.784 | 0.754 | 0.737 | 1.17 | 1.01 | 0.902 | 0.768 | 1.08 | 0.249 | 0.281 | 0.292 | 0.255 | 0.248 |
| NCI-H650 | 0.385 | 0.385 | 0.396 | 0.316 | 0.387 | 0.896 | 0.983 | 0.898 | 0.958 | 1.01 | 0.44 | 0.432 | 0.422 | 0.482 | 0.439 | 0.469 | 0.417 | 0.45 | 0.418 | 0.393 |
| EKVX |  | 0.737 | 0.818 | 0.778 | 0.866 |  | 0.334 | 0.359 | 0.402 | 0.387 | 0.863 | 0.837 | 0.813 | 0.783 | 0.736 | 0.225 | 0.227 | 0.24 | 0.224 | 0.233 |
| NCI-H1395 | 0.467 | 0.553 | 0.494 | 0.468 | 0.491 | 0.918 | 0.817 | 0.775 | 0.93 | 0.743 | 0.422 | 0.49 | 0.481 | 0.441 | 0.438 | 0.345 | 0.397 | 0.411 | 0.439 | 0.485 |
| NCI-H2009 | 0.679 | 0.655 | 0.699 | 0.662 | 0.724 | 1.02 | 1.03 | 1.03 | 0.941 | 0.965 | 0.701 | 0.661 | 0.57 | 0.566 | 0.499 | 0.467 | 0.474 | 0.478 | 0.45 | 0.467 |
| NCI-H23 | 0.321 | 0.277 | 0.26 | 0.296 | 0.409 | 0.7 | 0.539 | 0.569 | 0.639 | 0.65 | 0.311 | 0.245 | 0.201 | 0.195 | 0.125 | 0.765 | 0.728 | 0.806 | 0.742 | 0.731 |
